Results as given in ChEMBL document CHEMBL1151471, “Vancomycin-resistant Staphylococcus aureus isolates associated with Inc18-like vanA plasmids in Michigan” (2008).
Values after ≈ are worked out from the molar mass of the structure shown.

What was measured:
Type in all cases: functional
[1] = test system: Enterococcus faecalis; experiment: Antibacterial activity against Enterococcus faecalis AIS2007003 isolated from patients rectum by broth microdilution method
[2] = test system: Staphylococcus aureus; experiment: Antibacterial activity against vancomycin-resistant Staphylococcus aureus HIP15178 isolated from patients surgical wound by broth microdilution method
[3] = test system: Staphylococcus aureus; experiment: Antibacterial activity against vancomycin-resistant Staphylococcus aureus HIP14300 isolated from patients foot wound by broth microdilution method
[4] = test system: Staphylococcus aureus; experiment: Antibacterial activity against vancomycin-resistant Staphylococcus aureus AIS2006049 isolated from patients arm wound by broth microdilution method
[5] = test system: Enterococcus faecalis; experiment: Antibacterial activity against Enterococcus faecalis HIP15179 coisolated with vancomycin-resistant Staphylococcus aureus by broth microdilution method
[6] = test system: Staphylococcus aureus; experiment: Antibacterial activity against vancomycin-resistant Staphylococcus aureus AIS2006032 isolated from patients foot wound by broth microdilution method
[7] = test system: Enterococcus avium; experiment: Antibacterial activity against Enterococcus avium AIS2007004 isolated from patients rectum by broth microdilution method
[8] = test system: Enterococcus faecalis; experiment: Antibacterial activity against Enterococcus faecalis HIP14333 isolated from patients rectum by broth microdilution method

Row | Compound | MIC [1] | MIC [2] | MIC [3] | MIC [4] | MIC [5] | MIC [6] | MIC [7] | MIC [8]
1 | CCCCCCCCCC(=O)N[C@@H](Cc1c[nH]c2ccccc12)C(=O)N[C@H](CC(N)=O)C(=O)N[C@@H](CC(=O)O)C(=O)N[C@@H]1C(=O)NCC(=O)N[C@@H](CCCN)C(=O)N[C@@H](CC(=O)O)C(=O)N[C@H](C)C(=O)N[C@@H](CC(=O)O)C(=O)NCC(=O)N[C@H](CO)C(=O)N[C@@H]([C@H](C)CC(=O)O)C(=O)N[C@@H](CC(=O)c2ccccc2N)C(=O)O[C@@H]1C | 2 µg/mL (≈ 1.23 µM) | ≤ 0.5 µg/mL | ≤ 0.5 µg/mL | 2 µg/mL (≈ 1.23 µM) | 1 µg/mL (≈ 0.617 µM) | 1 µg/mL (≈ 0.617 µM) | 1 µg/mL (≈ 0.617 µM) | –
2 | CCC[C@@H]1C[C@@H](C(=O)N[C@@H]([C@H]2O[C@H](SC)[C@H](O)[C@@H](O)[C@H]2O)[C@H](C)Cl)N(C)C1 [CLINDAMYCIN] | – | > 16 µg/mL | > 16 µg/mL | > 16 µg/mL | – | > 16 µg/mL | – | –
3 | C[C@H]1c2cccc(O)c2C(=O)C2=C(O)[C@]3(O)C(=O)C(C(N)=O)=C(O)[C@@H](N(C)C)[C@@H]3[C@@H](O)[C@@H]21.O [DOXYCYCLINE] | 4 µg/mL | ≤ 0.5 µg/mL | ≤ 0.25 µg/mL | ≤ 1 µg/mL | ≤ 2 µg/mL | 1 µg/mL | 8 µg/mL | 8 µg/mL
4 | CC[C@H]1OC(=O)[C@H](C)[C@@H](O[C@H]2C[C@@](C)(OC)[C@@H](O)[C@H](C)O2)[C@H](C)[C@@H](O[C@@H]2O[C@H](C)C[C@H](N(C)C)[C@H]2O)[C@](C)(O)C[C@@H](C)C(=O)[C@H](C)[C@@H](O)[C@]1(C)O [ERYTHROMYCIN] | > 8 µg/mL | > 8 µg/mL | > 8 µg/mL | > 8 µg/mL | > 8 µg/mL | > 8 µg/mL | > 8 µg/mL | > 8 µg/mL
5 | C[C@H]1COc2c(N3CCN(C)CC3)c(F)cc3c(=O)c(C(=O)O)cn1c23.C[C@H]1COc2c(N3CCN(C)CC3)c(F)cc3c(=O)c(C(=O)O)cn1c23.O [LEVOFLOXACIN] | > 8 µg/mL | > 16 µg/mL | > 16 µg/mL | 8 µg/mL | 8 µg/mL | > 16 µg/mL | 8 µg/mL | > 8 µg/mL
6 | CC(=O)NC[C@H]1CN(c2ccc(N3CCOCC3)c(F)c2)C(=O)O1 [LINEZOLID] | – | – | – | – | – | – | 2 µg/mL (≈ 5.93 µM) | –
7 | Cc1onc(-c2ccccc2)c1C(=O)N[C@@H]1C(=O)N2[C@@H]1SC(C)(C)[C@@H]2C(=O)O [OXACILLIN] | – | > 16 µg/mL | > 16 µg/mL | > 16 µg/mL | – | > 16 µg/mL | – | –
8 | CO[C@H]1/C=C/O[C@@]2(C)Oc3c(C)c(O)c4c(O)c(c(/C=N/N5CCN(C)CC5)c(O)c4c3C2=O)NC(=O)/C(C)=C\C=C\[C@H](C)[C@H](O)[C@@H](C)[C@@H](O)[C@@H](C)[C@H](OC(C)=O)[C@@H]1C [RIFAMPIN] | 1 µg/mL (≈ 1.22 µM) | ≤ 0.5 µg/mL | ≤ 0.5 µg/mL | ≤ 0.5 µg/mL | 2 µg/mL (≈ 2.43 µM) | ≤ 0.5 µg/mL | 1 µg/mL (≈ 1.22 µM) | 1 µg/mL (≈ 1.22 µM)
9 | CN[C@@H]1[C@H](O[C@H]2[C@H](O[C@H]3[C@H](O)[C@@H](O)[C@H](N=C(N)N)[C@@H](O)[C@@H]3N=C(N)N)O[C@@H](C)[C@]2(O)C=O)O[C@@H](CO)[C@H](O)[C@H]1O [STREPTOMYCIN] | > 1000 µg/mL | – | – | – | > 1000 µg/mL | – | ≤ 1000 µg/mL | ≤ 1000 µg/mL
10 | CN[C@H](CC(C)C)C(=O)N[C@H]1C(=O)N[C@@H](CC(N)=O)C(=O)N[C@H]2C(=O)N[C@H]3C(=O)N[C@H](C(=O)N[C@H](C(=O)O)c4cc(O)cc(O)c4-c4cc3ccc4O)[C@H](O)c3ccc(c(Cl)c3)Oc3cc2cc(c3O[C@@H]2O[C@H](CO)[C@@H](O)[C@H](O)[C@H]2O[C@H]2C[C@](C)(N)[C@H](O)[C@H](C)O2)Oc2ccc(cc2Cl)[C@H]1O [VANCOMYCIN] | > 512 µg/mL | 512 µg/mL (≈ 353 µM) | 256 µg/mL (≈ 177 µM) | 512 µg/mL (≈ 353 µM) | 512 µg/mL (≈ 353 µM) | 1020 µg/mL (≈ 707 µM) | 256 µg/mL (≈ 177 µM) | 1020 µg/mL (≈ 707 µM)
11 | GENTAMICIN | > 500 µg/mL | < 2 µg/mL | < 2 µg/mL | < 2 µg/mL | > 500 µg/mL | < 2 µg/mL | > 500 µg/mL | > 500 µg/mL
